Test results: patent publication US10077258B2, “Substituted pyrimidine compounds as phosphatidylinositol 3-kinase delta inhibitor and use thereof” (NANJING SANHOME PHARMACEUTICAL CO., LTD., priority 2015, dated 2018)

How the values were obtained:
PI3Kγ = biological target: T1, PI3Kγ (Homo sapiens, UniProt P48736); assay: In vitro kinase activity (LabChip EZ Reader mobility shift), PI3Kγ; type: biochemical; conditions: kinase subtype PI3Kγ (p110γ)
T1 construct: purchased Invitrogen PR8641C
Description: (§1) Compounds: the compounds prepared in above examples of the present invention, each of which was prepared to a concentration of 10 mM in DMSO and diluted to […], 100 nM, 10 nM, 1 nM, 0.1 nM, 0.01 nM successively.
(§2) Reagents: PI3Kα (p110α(p85a), purchased from Invitrogen, Cat.No. PV4788; PIK3Cδ (p110δ/p85a), purchased from Millipore, Cat.No. 14-604-K; PIK3Cβ (p110β), purchased from Millipore, Cat.No. 14-603-K; PIK3Cγ (pp110γ), purchased from Invitrogen, Cat.No. PR8641C; DMSO, purchased from Sigma; EDTA, purchased from Sigma; 1× kinase buffer (50 mM HEPES, pH 7.5, 0.0015% Brij-35, 10 mM MgCl2, 2 mM DTT), which was prepared before use; termination solution (100 mM HEPES, pH 7.5, 0.015% Brij-35, 0.2% Coating Reagent#3, 50 mM EDTA), which was prepared before use.
(§3) Instruments: LabChip EZ Reader purchased from Caliper, USA.
(§4) 2.1 10 μl solution of each concentration of each compound was placed into 96-well plate and 90 μl of 1× kinase buffer was added. DMSO control group and control group without kinase activity were set up, which all contained 10 μl DMSO and 90 μl of 1× kinase buffer. Each group was mixed well at room temperature for 10 min, and then 5 μl of each group was transferred to a 384-well plate.
(§5) 2.2 Kinases were dissolved in 1× kinase buffer to prepare a 2.5× kinase solution. 10 μl of 2.5× kinase solution was transferred to the 384-well plate containing compounds of different concentrations. 10 μl of 2.5× kinase solution was added to DMSO control group and 10 μl of 1× kinase buffer without kinase was added to control group without kinase activity. The plate was incubated at room temperature for 10 min.
(§6) 2.3 ATP and the polypeptide labeled with FAM were dissolved in 1× kinase buffer to prepare 2.5× substrate solution. Then 10 μl of 2.5× substrate solution was transferred to the 384-well plate and incubated at 28° C. for 1 h.
(§7) 2.4 25 μl of termination solution was added to each well to terminate the reaction.
(§8) 2.5 The plate was placed on the LabChip EZ Reader to read the data of conversion rate and inhibitory rate (1%) was calculated according to formula: I %=(Max−Com)/(Max−Min)×100, wherein Max was the conversion rate of DMSO control group, Min was the conversion rate of control group without kinase activity, Com was the conversion rate of compound treatment group. IC50 was fitted by XLfit processing of the data.

SU-DHL-6 lymphoma cells = assay: In vitro cell activity, CellTiter-Glo cell viability, SU-DHL-6; type: cell-based; conditions: Homo sapiens, SU-DHL-6 lymphoma cell line, 72 h
Description: (§9) Compounds: the compounds prepared in above examples of the present invention, each of which was prepared to a concentration of 10 mM in DMSO and diluted 3 times to 20000.00 nM, 6666.67 nM, 2222.22 nM, 740.74 nM, 246.91 nM, 27.43 nM, 9.14 nM, 3.05 nM successively.
(§10) The lymphoma cell lines SU-DHL-5 and SU-DHL-6 were purchased from the American Type Culture Collection (ATCC).
(§11) Reagents: PRMI-1640, purchased from Invitrogen (USA); FBS, purchased from Invitrogen (USA); EDTA, purchased from Sigma (USA); CellTiter-Glo® Luminescent Cell Viability Assay Kit, purchased from Progema (USA); Backseal membrane, purchased from Perkin Elmer (USA).
(§12) The cells were thawed in a 37° C. water bath and then transferred to 15 ml preheated medium. The cells were centrifuged at 1000 rpm for 5 min and the medium was discarded. The cells were resuspended in 15 ml fresh medium and transferred to T75 culture flask and incubated in an incubator at 37° C. with 5% CO2. The medium was replaced with fresh medium 24 h later.
(§13) The resuscitated cells above were transferred to a 50 ml sterile centrifuge tube and centrifuged at 1000 rpm for 5 min. The medium was discarded, and the cells were dispersed uniformly and counted. The appropriate cell concentration was adjusted in 15 ml fresh medium and added to T75 culture flask. The flask was incubated in an incubator at 37° C. with 5% CO2.
When the cells in the T75 culture flask grew to 1×10^5˜1×10^6 cells/ml, the cells were resuspended with fresh medium (RPMI-1640+20% FBS) and counted. […] 10 min later, the Assay plate was attached at the bottom by Backseal membrane and placed on Envison to detect the fluorescence reading. Cell survive (%) was calculated according to the formula: cell survive (%)=(Com−Min)/(Max−Min), wherein Max was the reading of solvent control group, Min was the reading of control group without cells, and Com was the reading of compound treatment group.

PI3Kα = biological target: T2, PI3Kα (Homo sapiens, UniProt P42336); assay: In vitro kinase activity (LabChip EZ Reader mobility shift), PI3Kα; type: biochemical; conditions: kinase subtype PI3Kα (p110α/p85a)
T2 construct: purchased Invitrogen PV4788
T2 sequence (P42336 whole entry): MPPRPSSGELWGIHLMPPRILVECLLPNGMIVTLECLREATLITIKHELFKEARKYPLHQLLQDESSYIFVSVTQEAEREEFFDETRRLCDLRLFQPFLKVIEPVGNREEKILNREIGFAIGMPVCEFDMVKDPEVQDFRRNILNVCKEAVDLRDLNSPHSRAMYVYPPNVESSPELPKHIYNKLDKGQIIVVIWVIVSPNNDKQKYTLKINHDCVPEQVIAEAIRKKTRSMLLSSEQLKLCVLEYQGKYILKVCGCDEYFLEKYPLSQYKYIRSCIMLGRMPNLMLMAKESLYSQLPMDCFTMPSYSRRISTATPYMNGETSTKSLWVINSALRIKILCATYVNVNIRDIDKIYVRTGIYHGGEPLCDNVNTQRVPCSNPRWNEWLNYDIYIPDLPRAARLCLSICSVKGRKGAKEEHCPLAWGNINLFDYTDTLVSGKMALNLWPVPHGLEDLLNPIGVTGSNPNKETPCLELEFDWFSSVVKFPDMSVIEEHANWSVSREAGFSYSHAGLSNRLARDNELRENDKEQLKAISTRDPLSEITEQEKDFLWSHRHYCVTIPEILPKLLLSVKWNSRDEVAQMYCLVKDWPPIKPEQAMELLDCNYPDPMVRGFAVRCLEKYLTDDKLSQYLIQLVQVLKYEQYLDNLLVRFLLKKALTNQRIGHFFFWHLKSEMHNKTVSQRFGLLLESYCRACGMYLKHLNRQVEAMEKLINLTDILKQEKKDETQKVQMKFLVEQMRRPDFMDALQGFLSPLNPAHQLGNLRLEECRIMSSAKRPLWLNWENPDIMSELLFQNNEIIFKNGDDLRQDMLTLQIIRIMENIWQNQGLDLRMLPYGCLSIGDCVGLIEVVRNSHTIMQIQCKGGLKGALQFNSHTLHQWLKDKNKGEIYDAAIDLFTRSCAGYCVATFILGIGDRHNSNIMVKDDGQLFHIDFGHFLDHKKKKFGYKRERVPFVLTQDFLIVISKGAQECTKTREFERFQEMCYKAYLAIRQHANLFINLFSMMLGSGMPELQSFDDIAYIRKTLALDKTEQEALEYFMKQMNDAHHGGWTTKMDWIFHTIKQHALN
T2 sequence (P27986 whole entry partner): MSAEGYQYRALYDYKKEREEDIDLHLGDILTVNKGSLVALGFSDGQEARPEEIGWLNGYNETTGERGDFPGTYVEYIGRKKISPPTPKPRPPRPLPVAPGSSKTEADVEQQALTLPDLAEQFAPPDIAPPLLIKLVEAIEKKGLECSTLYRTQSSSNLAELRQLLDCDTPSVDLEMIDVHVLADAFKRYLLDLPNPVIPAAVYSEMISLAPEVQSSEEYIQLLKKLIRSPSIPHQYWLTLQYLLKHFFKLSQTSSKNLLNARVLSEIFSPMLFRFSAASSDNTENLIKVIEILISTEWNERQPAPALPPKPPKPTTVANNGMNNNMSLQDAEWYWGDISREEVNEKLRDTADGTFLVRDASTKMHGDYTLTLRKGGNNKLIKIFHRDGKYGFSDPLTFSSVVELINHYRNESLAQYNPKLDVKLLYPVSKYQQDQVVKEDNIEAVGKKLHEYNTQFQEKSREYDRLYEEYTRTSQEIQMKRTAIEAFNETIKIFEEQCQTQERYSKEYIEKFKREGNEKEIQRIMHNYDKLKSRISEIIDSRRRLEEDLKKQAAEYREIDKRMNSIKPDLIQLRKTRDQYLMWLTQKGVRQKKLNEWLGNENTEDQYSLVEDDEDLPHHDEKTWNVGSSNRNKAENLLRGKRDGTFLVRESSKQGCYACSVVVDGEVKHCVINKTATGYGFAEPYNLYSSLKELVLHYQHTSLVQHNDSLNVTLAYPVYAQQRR
Description: as §1, §2, §3, §4, §5, §6, §7, §8

PI3Kδ = biological target: T3, PI3Kδ (Homo sapiens, UniProt O00329); assay: In vitro kinase activity (LabChip EZ Reader mobility shift), PI3Kδ; type: biochemical; conditions: kinase subtype PI3Kδ (p110δ/p85a)
T3 construct: purchased Millipore 14-604-K
T3 sequence (O00329 whole entry): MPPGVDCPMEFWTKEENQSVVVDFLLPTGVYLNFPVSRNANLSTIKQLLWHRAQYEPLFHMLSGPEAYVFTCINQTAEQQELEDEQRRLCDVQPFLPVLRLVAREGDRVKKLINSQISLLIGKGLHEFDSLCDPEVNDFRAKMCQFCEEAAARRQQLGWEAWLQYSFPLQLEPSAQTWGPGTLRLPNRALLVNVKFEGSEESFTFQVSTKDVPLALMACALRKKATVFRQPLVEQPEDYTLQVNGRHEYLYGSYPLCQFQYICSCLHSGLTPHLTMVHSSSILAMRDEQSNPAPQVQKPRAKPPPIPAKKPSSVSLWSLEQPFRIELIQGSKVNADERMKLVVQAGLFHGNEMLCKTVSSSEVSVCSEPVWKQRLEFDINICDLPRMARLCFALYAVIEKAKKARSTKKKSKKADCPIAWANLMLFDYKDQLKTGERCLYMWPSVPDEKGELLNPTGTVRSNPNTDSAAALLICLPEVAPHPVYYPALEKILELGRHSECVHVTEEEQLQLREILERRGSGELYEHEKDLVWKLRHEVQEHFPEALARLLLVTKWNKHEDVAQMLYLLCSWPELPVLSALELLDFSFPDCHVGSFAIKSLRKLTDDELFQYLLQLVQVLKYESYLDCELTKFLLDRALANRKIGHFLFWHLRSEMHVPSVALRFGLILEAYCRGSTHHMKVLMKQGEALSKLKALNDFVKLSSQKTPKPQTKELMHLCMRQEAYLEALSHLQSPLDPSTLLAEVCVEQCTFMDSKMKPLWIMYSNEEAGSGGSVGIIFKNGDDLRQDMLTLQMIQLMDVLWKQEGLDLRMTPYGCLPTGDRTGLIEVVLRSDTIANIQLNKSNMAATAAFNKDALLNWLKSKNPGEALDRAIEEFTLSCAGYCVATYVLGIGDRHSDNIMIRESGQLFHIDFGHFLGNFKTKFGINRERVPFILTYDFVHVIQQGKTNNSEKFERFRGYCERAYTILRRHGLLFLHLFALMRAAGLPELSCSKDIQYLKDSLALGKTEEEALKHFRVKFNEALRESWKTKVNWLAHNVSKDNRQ
T3 sequence (P27986 whole entry partner): as the sequence (P27986 whole entry partner) above
Description: as §1, §2, §3, §4, §5, §6, §7, §8

SU-DHL-5 lymphoma cells = assay: In vitro cell activity, CellTiter-Glo cell viability, SU-DHL-5; type: cell-based; conditions: Homo sapiens, SU-DHL-5 lymphoma cell line, 72 h
Description: as §9, §10, §11, §12, §13
When the cells in the T75 culture flask grew to 1×10^5˜1×10^6 cells/ml, the cells were resuspended with fresh medium (RPMI-1640+20% FBS) and counted. The resuspended cells were adjusted to the following eight concentrations: 1×10^4 cells/ml, 2×10^4 cells/ml, 3×10^4 cells/ml, 5×10^4 cells/ml, 8×10^4 cells/ml, 1×10^5 cells/ml, 1.5×10^5 cells/ml, and 2×10^5 cells/ml. The above cell suspensions were added to 96-well cell culture plate, 100 μl each well (1×10^3 cells/ml, 2×10^3 cells/ml, 3×10^3 cells/ml, 5×10^3 cells/ml, 8×10^3 cells/ml, 1×10^4 cells/ml, 1.5×10^4 cells/ml, and 2×10^4 cells/ml, respectively). Each concentration was done double in three plates. 72 h later, 100 μl CellTiter-Glo® Luminescent Cell Viability Assay buffer was added to test wells and shaken gently. 10 min later, the Assay plate was attached at the bottom by Backseal membrane and placed on Envison to detect the fluorescence reading. Cell survive (%) was calculated according to the formula: cell survive (%)=(Com−Min)/(Max−Min), wherein Max was the reading of solvent control group, Min was the reading of control group without cells, and Com was the reading of compound treatment group.

PI3Kβ = biological target: T4, PI3Kβ (Homo sapiens, UniProt P42338); assay: In vitro kinase activity (LabChip EZ Reader mobility shift), PI3Kβ; type: biochemical; conditions: kinase subtype PI3Kβ (p110β)
T4 construct: purchased Millipore 14-603-K
T4 sequence (P42338 whole entry): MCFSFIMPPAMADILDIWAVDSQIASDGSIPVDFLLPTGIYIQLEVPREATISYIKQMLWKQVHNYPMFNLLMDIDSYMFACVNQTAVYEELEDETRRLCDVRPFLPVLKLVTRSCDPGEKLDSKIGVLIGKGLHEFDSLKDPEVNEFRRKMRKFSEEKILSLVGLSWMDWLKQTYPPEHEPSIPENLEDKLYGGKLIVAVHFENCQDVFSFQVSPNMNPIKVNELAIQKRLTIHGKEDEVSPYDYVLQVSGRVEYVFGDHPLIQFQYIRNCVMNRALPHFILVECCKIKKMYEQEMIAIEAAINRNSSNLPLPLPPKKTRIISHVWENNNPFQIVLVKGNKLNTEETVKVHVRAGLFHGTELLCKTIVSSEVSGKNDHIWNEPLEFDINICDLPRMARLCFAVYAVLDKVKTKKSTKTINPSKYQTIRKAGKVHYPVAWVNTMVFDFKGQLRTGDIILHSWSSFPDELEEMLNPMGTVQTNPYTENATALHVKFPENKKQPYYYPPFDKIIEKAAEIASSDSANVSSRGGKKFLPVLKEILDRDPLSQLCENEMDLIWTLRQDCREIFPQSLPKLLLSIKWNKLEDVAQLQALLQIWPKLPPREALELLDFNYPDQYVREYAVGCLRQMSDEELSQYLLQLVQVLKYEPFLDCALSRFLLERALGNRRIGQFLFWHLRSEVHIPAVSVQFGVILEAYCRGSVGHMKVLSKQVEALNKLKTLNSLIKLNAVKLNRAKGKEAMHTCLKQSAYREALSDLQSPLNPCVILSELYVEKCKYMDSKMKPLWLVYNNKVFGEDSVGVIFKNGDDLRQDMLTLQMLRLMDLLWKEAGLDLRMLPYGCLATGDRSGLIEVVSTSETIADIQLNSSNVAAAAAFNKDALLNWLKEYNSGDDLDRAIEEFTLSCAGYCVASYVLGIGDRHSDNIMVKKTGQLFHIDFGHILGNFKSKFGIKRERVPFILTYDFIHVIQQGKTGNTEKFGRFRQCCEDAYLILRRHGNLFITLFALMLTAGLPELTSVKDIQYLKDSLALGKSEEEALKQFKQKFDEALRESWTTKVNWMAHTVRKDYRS
T4 sequence (P27986 whole entry partner): as the sequence (P27986 whole entry partner) above
Description: as §1, §2, §3, §4, §5, §6, §7, §8

T1 sequence (P48736 whole entry): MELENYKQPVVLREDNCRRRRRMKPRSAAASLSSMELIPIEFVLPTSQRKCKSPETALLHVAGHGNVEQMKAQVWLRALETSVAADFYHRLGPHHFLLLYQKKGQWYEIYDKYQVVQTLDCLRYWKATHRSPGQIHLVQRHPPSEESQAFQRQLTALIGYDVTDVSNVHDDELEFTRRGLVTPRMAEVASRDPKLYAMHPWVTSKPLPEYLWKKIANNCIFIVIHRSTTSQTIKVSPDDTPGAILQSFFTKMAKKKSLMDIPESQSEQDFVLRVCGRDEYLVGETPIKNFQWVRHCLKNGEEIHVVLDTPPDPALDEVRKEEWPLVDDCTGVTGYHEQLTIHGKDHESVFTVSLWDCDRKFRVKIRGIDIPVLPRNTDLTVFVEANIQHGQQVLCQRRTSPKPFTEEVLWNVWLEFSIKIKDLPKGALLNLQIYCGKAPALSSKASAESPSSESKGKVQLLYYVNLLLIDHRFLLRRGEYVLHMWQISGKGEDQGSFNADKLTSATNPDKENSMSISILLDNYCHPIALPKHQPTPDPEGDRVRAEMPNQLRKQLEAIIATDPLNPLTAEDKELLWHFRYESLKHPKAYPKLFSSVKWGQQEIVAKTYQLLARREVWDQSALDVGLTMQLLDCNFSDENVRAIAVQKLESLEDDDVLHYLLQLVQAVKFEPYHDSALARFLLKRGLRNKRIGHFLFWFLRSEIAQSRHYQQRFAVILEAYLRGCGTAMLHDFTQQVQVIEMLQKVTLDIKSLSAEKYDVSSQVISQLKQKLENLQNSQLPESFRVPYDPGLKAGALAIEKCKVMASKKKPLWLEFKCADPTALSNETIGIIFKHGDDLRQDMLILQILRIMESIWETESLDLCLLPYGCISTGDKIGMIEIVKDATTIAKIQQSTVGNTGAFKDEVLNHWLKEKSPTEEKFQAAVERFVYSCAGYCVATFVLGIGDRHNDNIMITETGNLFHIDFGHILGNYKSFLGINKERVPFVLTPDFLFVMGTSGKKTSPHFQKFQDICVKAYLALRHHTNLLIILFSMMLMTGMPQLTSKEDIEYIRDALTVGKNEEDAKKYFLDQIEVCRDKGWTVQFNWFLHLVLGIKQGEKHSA

Compound | IC50 (PI3Kγ) [nM] | IC50 (SU-DHL-6 lymphoma cells) [µM] | IC50 (PI3Kα) [nM] | IC50 (PI3Kδ) [nM] | IC50 (SU-DHL-5 lymphoma cells) [µM] | IC50 (PI3Kβ) [nM]
N#Cc1c(N)ncnc1NCc1c(-c2ccccc2)[nH]c2c(Cl)cccc2c1=O [Example 14, 4-Amino-5-cyano-6-(((8-chloro-4-oxo-2-phenyl-1,4-dihydroquinolin-3-yl)methyl)amino)pyrimidine] | 905 | 0.16 | > 1000 | 3.2 | 4.63 | 546
CC(Nc1ncnc(N)c1C#N)c1c(-c2ccccc2)[nH]c2ccccc2c1=O (stereo not drawn) [Example 10, 4-Amino-5-cyano-6-((1-(4-oxo-2-phenyl-1,4-dihydroquinolin-3-yl)ethyl)amino) pyrimidine] | 441 | 0.04 | 1070 | 4.4 | 0.81 | 569
CC(Nc1nc(N)nc(N)c1C#N)c1c(-c2ccccc2)oc2ccccc2c1=O (stereo not drawn) [Example 4, 2,4-Diamino-5-cyano-6-(1-(4-oxo-2-phenyl-4H-chromen-3-yl)ethylamino) pyrimidine] | 83 | 0.014 | > 1000 | 9.2 | 1.41 | 546
